Columns and labels:
[1] = system: Cooperia onocophora and Nematodirus; conditions: against Cooperia onocophora and Nematodirus; cited from earlier work
[2] = Carr Index (compressibility/flowability) of unmilled polymorphic forms; type: physicochemical
Description: After crystallization and before micronization, the Carr Index of B form is lower than 10 (in %). The Can Index CI is defined as [formula] where P is the packed bulk density (g cm^−3), L is the loose bulk density (g cm 3). CI is also known as a compressibility index. A low figure for Cl corresponds to a high degree of flowability. The Carr Index way be calculated from Mercury Intrusion Porosimetry or measured by Tap-Tap.

[3] = Thermodynamic stability of polymorphic forms (DSC, Burger's rule); type: physicochemical; conditions: monotropic system
Description: When heated, form A transforms to form B depending on the heating rate.
Therefore, the transition A→B is under kinetic control as usual in case of polymorphism. The transition from A to B may also be followed by XRay under heating (FIG. 12).

Row | Carr Index ([2]; after crystallization and before micronization) | thermodynamic stability of polymorphic form ([3]; listed as B form) | Compound | ivermectin plasma level required for efficacy [1] [ng/mL] | flow characteristics ([2]; compared with Polymorph A) | thermodynamic stability of polymorphic form [3]
1 |  |  | 22,23-dihydro avermectin Bla/Blb [ivermectin] | 3 to 4 |  | 
2 | lower than 10% | the most stable form | CC1(C)OC(=O)C(OCC2CC2)=C1c1ccc(S(C)(=O)=O)cc1 [Polymorph B, 3-(cyclopropylmethoxy)-4-[4-(methylsulfonyl)phenyl]-5,5-dimethyl-5H-furan-2-one] |  | better flow characteristics than Polymorph A | thermodynamically more stable than Polymorph A
